Substitutions are numbered along the chain they refer to.
Key:
[1] = biological target: T1, creatine transporter (CrT) (Mus musculus, UniProt Q8VBW1); assay: 14C-labelled creatine uptake in HL-1 cells expressing endogenous CrT; assay type: cell-based; settings: HL1 cells incubated with 250 μM creatine; increasing extracellular β-GPA concentration; FIG. 5B
T1 construct: these cells express endogenous CrT; endogenous in cells; host or cells: HL-1 cells (mouse atrial cardiomyocyte-like)
T1 sequence (Q8VBW1 1-635): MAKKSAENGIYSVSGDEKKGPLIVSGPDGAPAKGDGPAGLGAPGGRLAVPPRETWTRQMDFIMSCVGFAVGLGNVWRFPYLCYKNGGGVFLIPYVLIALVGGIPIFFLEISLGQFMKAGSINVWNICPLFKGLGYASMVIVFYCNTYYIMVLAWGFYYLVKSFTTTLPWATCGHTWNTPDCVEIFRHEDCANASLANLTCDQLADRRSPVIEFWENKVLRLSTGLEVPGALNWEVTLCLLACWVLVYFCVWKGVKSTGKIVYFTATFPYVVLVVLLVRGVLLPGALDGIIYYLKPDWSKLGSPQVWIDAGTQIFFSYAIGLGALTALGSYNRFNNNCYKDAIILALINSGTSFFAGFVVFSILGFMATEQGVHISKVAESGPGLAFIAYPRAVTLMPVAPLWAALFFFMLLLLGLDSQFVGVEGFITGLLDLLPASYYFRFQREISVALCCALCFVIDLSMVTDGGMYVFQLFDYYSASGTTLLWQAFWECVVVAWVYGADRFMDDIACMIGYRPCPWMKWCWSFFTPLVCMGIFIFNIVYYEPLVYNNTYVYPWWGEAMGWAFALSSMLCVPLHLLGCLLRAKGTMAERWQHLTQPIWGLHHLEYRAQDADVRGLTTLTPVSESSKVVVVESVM
Description: Cells (1×10^5 cells) were plated into 24-well-plates, and incubated for 18 hours to form monolayers. Each well was spiked with 10 μl (37 kBq) ^14C-creatine, 500 μM of non-radiolabelled Cr, and 30 μM of test compound (β-guanidinopropionic acid) (performed in triplicate). After incubation at 37° C. for 60 min (95% air, 5% CO2), media was aspirated, cells solubilised and lysed using PBS/TritonX-100. A scintillation counter measures signal attributed to intracellular radiolabel, with Cr uptake estimated against known standards. Control wells contain no test compound to measure normal background uptake, and control wells containing only cells are used for protein quantification. […] HL-1 cells that are derived from mouse atrial tumour cells and have a beating cardiomyocyte-like phenotype. […] Changes in creatine uptake were measured using the ^14C screen described above.

[2] = biological target: T2, creatine transporter (CrT) (Homo sapiens, UniProt P48029); assay: 14C-labelled creatine uptake in fibroblast 3T3 cells that stably express the CrT; assay type: cell-based; settings: 3T3 cells stably expressing CrT; increasing extracellular β-GPA concentration; 14C-creatine, 37° C. for 60 min; FIG. 5B
T2 construct: expressed in transfected cells
T2 sequence (P48029 1-635): T1 sequence (Q8VBW1 1-635) with V24A, S25P, A38V, A42T, T223G, T368A, I539V
Description: We have developed a sensitive and specific assay for measuring ^14C-labelled Cr uptake in cell culture using fibroblast 3T3 cells that stably express the CrT. Cells (1×10^5 cells) were plated into 24-well-plates, and incubated for 18 hours to form monolayers. […] After incubation at 37° C. for 60 min (95% air, 5% CO2), media was aspirated, cells solubilised and lysed using PBS/TritonX-100. A scintillation counter measures signal attributed to intracellular radiolabel, with Cr uptake estimated against known standards. Control wells contain no test compound to measure normal background uptake, and control wells containing only cells are used for protein quantification.

Structure (SMILES): N=C(N)NCCC(=O)O [β-GPA, β-guanidinopropionic acid]
- creatine uptake [1]: dose-dependent inhibition of creatine uptake
- creatine uptake [2]: dose-dependent inhibition of creatine uptake
